Test results published in ChEMBL document CHEMBL5154800, “Identification of N, C-capped di- and tripeptides as selective immunoproteasome inhibitors” (Eur J Med Chem, 2022).
pIC50: −log10 of the molar value. Active and inactive are the calls of the source. The rule behind the calls is not given here.

Tested on: THP-1
Experiment: Antiinflammatory activity against LPS-stimulated human THP-1 cells assessed inhibition of TNF-alpha release at 40 uM measured by ELISA
Type: functional, cell-based
Details: not given
In the case of `CC(C)(C)NC(=O)CC[C@H](NC(=O)CCNC(=O)CCl)C(=O)N[C@@H](Cc1ccccc1)C(=O)NCc1cccc2ccccc12`, the Activity was “Active”. In the case of `Cc1ccc(CNC(=O)[C@H](Cc2ccccc2)NC(=O)[C@H](CC(N)=O)NC(=O)[C@H](CNC(=O)CCl)NC(=O)CN2CCOCC2)cc1`, the Activity was “Active”. For `CC(C)(C)NC(=O)CC[C@H](NC(=O)CCNC(=O)/C(C#N)=C/c1ccc(Cl)cc1)C(=O)N[C@@H](Cc1ccc2ccccc2c1)C(=O)NCc1cccc2ccccc12`, the Activity was “Active”.

Tested on: MCF7
Experiment: Antiproliferative activity against human MCF7 cells assessed as growth inhibition at 0.2 uM measured after 72 hrs by MTT assay
Type: functional
Details: read-out: GI
For `CC(C)(C)NC(=O)CC[C@H](NC(=O)CCNC(=O)CCl)C(=O)N[C@@H](Cc1ccccc1)C(=O)NCc1cccc2ccccc12`, the inhibition of growth at 0.2 µM was < 20%. With `CC(C)(C)NC(=O)CC[C@H](NC(=O)CCNC(=O)/C(C#N)=C/c1ccc(Cl)cc1)C(=O)N[C@@H](Cc1ccc2ccccc2c1)C(=O)NCc1cccc2ccccc12` the inhibition of growth at 0.2 µM was < 20%.

Tested on: THP-1
Experiment: Antiinflammatory activity against LPS-stimulated human THP-1 cells assessed inhibition of IL-6 release at 40 uM measured by ELISA
Type: functional, cell-based
Details: not given
For `CC(C)(C)NC(=O)CC[C@H](NC(=O)CCNC(=O)CCl)C(=O)N[C@@H](Cc1ccccc1)C(=O)NCc1cccc2ccccc12`, the Activity was “Active”. With `Cc1ccc(CNC(=O)[C@H](Cc2ccccc2)NC(=O)[C@H](CC(N)=O)NC(=O)[C@H](CNC(=O)CCl)NC(=O)CN2CCOCC2)cc1` the Activity was “Active”. For `CC(C)(C)NC(=O)CC[C@H](NC(=O)CCNC(=O)/C(C#N)=C/c1ccc(Cl)cc1)C(=O)N[C@@H](Cc1ccc2ccccc2c1)C(=O)NCc1cccc2ccccc12`, the Activity was “Active”.

Target: T1, Proteasome subunit beta type-8 (Homo sapiens, UniProt P28062)
T1 sequence (P28062 whole entry): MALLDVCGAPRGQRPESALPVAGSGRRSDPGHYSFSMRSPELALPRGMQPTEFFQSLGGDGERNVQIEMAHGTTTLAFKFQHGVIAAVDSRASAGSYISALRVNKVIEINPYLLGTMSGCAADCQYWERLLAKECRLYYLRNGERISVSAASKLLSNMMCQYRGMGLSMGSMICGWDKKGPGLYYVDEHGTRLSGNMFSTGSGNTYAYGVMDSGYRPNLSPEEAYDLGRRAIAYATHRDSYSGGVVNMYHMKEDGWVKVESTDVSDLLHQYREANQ
Experiment: Inhibition of 20S proteasome subunit beta-5i (unknown origin) using Ac-ANW-AMC as substrate and measured after 30 mins
Details: not given
Work on `CC(C)(C)NC(=O)CC[C@H](NC(=O)CCNC(=O)CCl)C(=O)N[C@@H](Cc1ccccc1)C(=O)NCc1cccc2ccccc12` yielded a pIC50 of 8.42. For `Cc1ccc(CNC(=O)[C@H](Cc2ccccc2)NC(=O)[C@H](CC(N)=O)NC(=O)[C@H](CNC(=O)CCl)NC(=O)CN2CCOCC2)cc1`, the pIC50 was 5.56.

Tested on: not listed separately
Experiment: Selectivity ratio of IC50 for inhibition of 20S proteasome beta 5c subunit (unknown origin) to IC50 for inhibition of 20S proteasome subunit beta-5i
Details: not given
`CC(C)(C)NC(=O)CC[C@H](NC(=O)CCNC(=O)CCl)C(=O)N[C@@H](Cc1ccccc1)C(=O)NCc1cccc2ccccc12` showed a Ratio IC50 of 113. In the case of `Cc1ccc(CNC(=O)[C@H](Cc2ccccc2)NC(=O)[C@H](CC(N)=O)NC(=O)[C@H](CNC(=O)CCl)NC(=O)CN2CCOCC2)cc1`, the Ratio IC50 was > 4. With `CC(C)(C)NC(=O)CC[C@H](NC(=O)CCNC(=O)/C(C#N)=C/c1ccc(Cl)cc1)C(=O)N[C@@H](Cc1ccc2ccccc2c1)C(=O)NCc1cccc2ccccc12` the Ratio IC50 was 222.

Tested on: Pfeiffer
Experiment: Antiproliferative activity against human Pfeiffer cells assessed as growth inhibition at 0.2 uM measured after 72 hrs by MTT assay
Type: functional
Details: read-out: GI
In the case of `CC(C)(C)NC(=O)CC[C@H](NC(=O)CCNC(=O)CCl)C(=O)N[C@@H](Cc1ccccc1)C(=O)NCc1cccc2ccccc12`, the inhibition of growth at 0.2 µM was < 20%. Work on `CC(C)(C)NC(=O)CC[C@H](NC(=O)CCNC(=O)/C(C#N)=C/c1ccc(Cl)cc1)C(=O)N[C@@H](Cc1ccc2ccccc2c1)C(=O)NCc1cccc2ccccc12` yielded an inhibition of growth at 0.2 µM of 28%.

Tested on: DOHH-2
Experiment: Antiproliferative activity against human DOHH-2 cells assessed as growth inhibition at 0.2 uM measured after 72 hrs by MTT assay
Type: functional
Details: read-out: GI
In the case of `CC(C)(C)NC(=O)CC[C@H](NC(=O)CCNC(=O)CCl)C(=O)N[C@@H](Cc1ccccc1)C(=O)NCc1cccc2ccccc12`, the inhibition of growth at 0.2 µM was < 20%. In the case of `CC(C)(C)NC(=O)CC[C@H](NC(=O)CCNC(=O)/C(C#N)=C/c1ccc(Cl)cc1)C(=O)N[C@@H](Cc1ccc2ccccc2c1)C(=O)NCc1cccc2ccccc12`, the inhibition of growth at 0.2 µM was < 20%.

Tested on: HT-29
Experiment: Antiproliferative activity against human HT-29 cells assessed as growth inhibition at 0.2 uM measured after 72 hrs by MTT assay
Type: functional
Details: read-out: GI
In the case of `CC(C)(C)NC(=O)CC[C@H](NC(=O)CCNC(=O)CCl)C(=O)N[C@@H](Cc1ccccc1)C(=O)NCc1cccc2ccccc12`, the inhibition of growth at 0.2 µM was < 20%. For `CC(C)(C)NC(=O)CC[C@H](NC(=O)CCNC(=O)/C(C#N)=C/c1ccc(Cl)cc1)C(=O)N[C@@H](Cc1ccc2ccccc2c1)C(=O)NCc1cccc2ccccc12`, the inhibition of growth at 0.2 µM was < 20%.

Target: T2, Proteasome subunit beta type-10 (Homo sapiens, UniProt P40306)
T2 sequence (P40306 whole entry): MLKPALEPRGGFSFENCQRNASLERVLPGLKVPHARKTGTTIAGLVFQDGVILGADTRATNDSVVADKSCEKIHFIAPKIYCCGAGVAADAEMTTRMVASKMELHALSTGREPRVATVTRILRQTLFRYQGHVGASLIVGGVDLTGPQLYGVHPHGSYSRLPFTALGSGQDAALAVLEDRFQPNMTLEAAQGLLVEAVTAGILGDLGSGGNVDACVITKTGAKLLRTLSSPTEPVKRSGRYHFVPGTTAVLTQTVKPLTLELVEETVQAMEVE
Experiment: Inhibition of 20S proteasome subunit beta-2i (unknown origin) using Ac-KQL-AMC as substrate and measured after 30 mins
Details: not given
In the case of `CC(C)(C)NC(=O)CC[C@H](NC(=O)CCNC(=O)CCl)C(=O)N[C@@H](Cc1ccccc1)C(=O)NCc1cccc2ccccc12`, the pIC50 was < 4.40.

Tested on: HCT-116
Experiment: Antiproliferative activity against human HCT-116 cells assessed as growth inhibition at 0.2 uM measured after 72 hrs by MTT assay
Type: functional
Details: read-out: GI
`CC(C)(C)NC(=O)CC[C@H](NC(=O)CCNC(=O)CCl)C(=O)N[C@@H](Cc1ccccc1)C(=O)NCc1cccc2ccccc12` gave an inhibition of growth at 0.2 µM of 21%. With `CC(C)(C)NC(=O)CC[C@H](NC(=O)CCNC(=O)/C(C#N)=C/c1ccc(Cl)cc1)C(=O)N[C@@H](Cc1ccc2ccccc2c1)C(=O)NCc1cccc2ccccc12` the inhibition of growth at 0.2 µM was < 20%.

Target: T3, Proteasome Macropain subunit MB1 (Homo sapiens, UniProt P28074)
T3 sequence (P28074 whole entry): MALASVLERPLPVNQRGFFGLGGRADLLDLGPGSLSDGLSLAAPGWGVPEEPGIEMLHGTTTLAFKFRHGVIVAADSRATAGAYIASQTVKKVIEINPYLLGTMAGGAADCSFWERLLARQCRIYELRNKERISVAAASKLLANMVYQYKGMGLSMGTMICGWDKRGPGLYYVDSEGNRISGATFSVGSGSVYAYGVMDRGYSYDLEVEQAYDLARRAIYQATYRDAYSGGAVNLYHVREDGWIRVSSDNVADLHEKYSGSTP
Experiment: Inhibition of 20S proteasome subunit beta-5c (unknown origin) using Ac-WLA-AMC as substrate and measured after 30 mins
Details: not given
For `Cc1ccc(CNC(=O)[C@H](Cc2ccccc2)NC(=O)[C@H](CC(N)=O)NC(=O)[C@H](CNC(=O)CCl)NC(=O)CN2CCOCC2)cc1`, the pIC50 was < 5.00.

Target: T4, Proteasome subunit beta type-9 (Homo sapiens, UniProt P28065)
T4 sequence (P28065 whole entry): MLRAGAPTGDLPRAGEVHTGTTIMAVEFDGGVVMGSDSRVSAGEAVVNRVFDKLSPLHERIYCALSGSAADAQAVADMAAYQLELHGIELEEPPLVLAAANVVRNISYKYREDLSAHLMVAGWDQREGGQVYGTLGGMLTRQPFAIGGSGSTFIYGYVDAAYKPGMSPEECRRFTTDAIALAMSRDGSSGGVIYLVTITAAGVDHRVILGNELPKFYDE
Experiment: Inhibition of 20S proteasome subunit beta-1i (unknown origin) using Ac-PAL-AMC as substrate and measured after 30 mins
Details: not given
For `CC(C)(C)NC(=O)CC[C@H](NC(=O)CCNC(=O)CCl)C(=O)N[C@@H](Cc1ccccc1)C(=O)NCc1cccc2ccccc12`, the pIC50 was < 4.40.
